Columns and labels:
[1] = test system: Mus musculus; assay: Increase in analgesic activity of compound after oral administration in mouse when compared with morphine in tail flick test; type: functional
[2] = test system: Mus musculus; assay: Increase in antinociceptive activity in mouse after oral administration at the dose of 1 mg/kg in tail flick test; type: functional

CC[C@@H]1CCC[C@H](C(=O)O)O1
Increase [1]: 55%
Increase [2]: 40%

— ChEMBL document CHEMBL1147638, “(+/-)-cis-(6-Ethyl-tetrahydropyran-2-yl)-formic acid: a novel substance with antinociceptive properties” (2004)
